# Measurements from ChEMBL document CHEMBL4414609, “High-Affinity Alkynyl Bisubstrate Inhibitors of Nicotinamide N-Methyltransferase (NNMT)” (J Med Chem, 2019).
# Columns and labels:
# [1] = target: T1, TPMT (thiopurine S-methyltransferase) (Homo sapiens, UniProt P51580); test: Inhibition of human TPMT expressed in Escherichia coli assessed as reduction in SAH level at 1 uM using 6-mercaptopurine as substrate in presence of SAM incubated for 30 mins by LC-MS/MS analysis relative to control; conditions: recombinant human TPMT expressed in Escherichia coli, probe 6-mercaptopurine
# T1 sequence (P51580 whole entry): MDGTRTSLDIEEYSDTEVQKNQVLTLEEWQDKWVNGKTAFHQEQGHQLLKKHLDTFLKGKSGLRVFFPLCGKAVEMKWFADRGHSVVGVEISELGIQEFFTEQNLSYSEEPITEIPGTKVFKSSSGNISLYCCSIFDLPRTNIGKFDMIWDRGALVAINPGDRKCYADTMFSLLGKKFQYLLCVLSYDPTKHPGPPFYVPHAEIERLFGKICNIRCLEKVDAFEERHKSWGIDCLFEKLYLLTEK
# [2] = target: GAMT (guanidinoacetate N-methyltransferase) (Homo sapiens, UniProt Q14353); test: Inhibition of human GAMT expressed in Escherichia coli at 1 uM assessed as reduction in SAH level using guanidineacetic acid as substrate in presence of SAM incubated for 30 mins by LC-MS/MS analysis relative to control; conditions: recombinant human GAMT expressed in Escherichia coli, probe guanidineacetic acid
# [3] = target: T2, COMT (catechol O-methyltransferase) (Homo sapiens, UniProt P21964); test: Inhibition of human COMT expressed in Escherichia coli at 1 uM assessed as reduction in SAH level using pyrocatechol as substrate in presence of SAM incubated for 15 mins by LC-MS/MS analysis relative to control; conditions: recombinant human COMT expressed in Escherichia coli, probe pyrocatechol
# T2 sequence (P21964 whole entry): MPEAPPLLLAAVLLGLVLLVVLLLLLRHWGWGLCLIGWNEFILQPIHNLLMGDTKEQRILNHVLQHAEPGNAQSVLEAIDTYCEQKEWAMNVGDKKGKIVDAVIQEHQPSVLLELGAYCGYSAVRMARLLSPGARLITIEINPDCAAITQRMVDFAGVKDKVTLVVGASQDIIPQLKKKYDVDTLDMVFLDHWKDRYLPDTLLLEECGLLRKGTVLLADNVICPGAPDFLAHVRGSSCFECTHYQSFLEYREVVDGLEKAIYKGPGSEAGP
# [4] = target: HNMT (histamine N-methyltransferase) (Homo sapiens, UniProt P50135); test: Inhibition of human HNMT expressed in Escherichia coli at 1 uM assessed as reduction in SAH level using histamine as substrate in presence of SAM incubated for 15 mins by LC-MS/MS analysis relative to control; conditions: recombinant human HNMT expressed in Escherichia coli, probe histamine
# Sequence of HNMT (histamine N-methyltransferase) (P50135 whole entry): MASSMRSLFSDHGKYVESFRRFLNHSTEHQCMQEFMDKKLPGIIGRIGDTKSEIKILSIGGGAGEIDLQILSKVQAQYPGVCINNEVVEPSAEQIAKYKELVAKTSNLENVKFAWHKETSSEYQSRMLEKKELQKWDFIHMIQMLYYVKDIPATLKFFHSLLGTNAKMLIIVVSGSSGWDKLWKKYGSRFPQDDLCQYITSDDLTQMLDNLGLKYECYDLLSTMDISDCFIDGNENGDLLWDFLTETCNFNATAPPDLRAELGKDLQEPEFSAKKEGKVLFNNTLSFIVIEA
# [5] = target: T3, PNMT (phenylethanolamine N-methyltransferase) (Homo sapiens, UniProt P11086); test: Inhibition of human PNMT expressed in Escherichia coli at 10 uM assessed as reduction in SAH level using DL-normetanephrine as substrate in presence of SAM incubated for 45 mins by LC-MS/MS analysis relative to control; conditions: recombinant human PNMT expressed in Escherichia coli, probe DL-normetanephrine
# T3 sequence (P11086 whole entry): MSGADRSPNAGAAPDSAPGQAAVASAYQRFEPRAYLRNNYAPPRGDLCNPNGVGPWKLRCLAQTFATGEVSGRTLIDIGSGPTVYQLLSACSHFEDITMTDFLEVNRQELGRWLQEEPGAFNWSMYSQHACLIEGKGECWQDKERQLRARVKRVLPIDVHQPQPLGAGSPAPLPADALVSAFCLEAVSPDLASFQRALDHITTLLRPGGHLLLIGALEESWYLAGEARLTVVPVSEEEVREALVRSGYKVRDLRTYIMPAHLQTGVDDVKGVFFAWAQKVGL
# [6] = target: T1, TPMT (thiopurine S-methyltransferase); test: Inhibition of human TPMT expressed in Escherichia coli assessed as reduction in SAH level at 10 uM using 6-mercaptopurine as substrate in presence of SAM incubated for 30 mins by LC-MS/MS analysis relative to control; conditions: recombinant human TPMT expressed in Escherichia coli, probe 6-mercaptopurine
# [7] = target: Indolethylamine N-methyltransferase (Homo sapiens, UniProt O95050); test: Inhibition of wild type human INMT expressed in Escherichia coli using tryptamine as substrate in presence of SAM incubated for 30 mins by MTase-Glo assay
# Sequence of Indolethylamine N-methyltransferase (O95050 whole entry): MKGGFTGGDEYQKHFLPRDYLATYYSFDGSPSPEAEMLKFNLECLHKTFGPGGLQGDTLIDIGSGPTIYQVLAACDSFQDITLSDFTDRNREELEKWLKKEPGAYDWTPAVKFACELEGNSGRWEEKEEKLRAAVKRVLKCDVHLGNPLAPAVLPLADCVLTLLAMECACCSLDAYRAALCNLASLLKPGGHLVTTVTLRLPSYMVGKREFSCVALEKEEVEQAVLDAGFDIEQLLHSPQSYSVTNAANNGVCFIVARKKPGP
# [8] = target: T4, Histone-lysine N-methyltransferase EHMT2 (Homo sapiens, UniProt Q96KQ7); test: Inhibition of human G9a expressed in Escherichia coli assessed as reduction in methylated histone H3 full length using histone H3 full length level as substrate in presence of [3H] SAM incubated for 120 mins by scintillation counting
# T4 sequence (Q96KQ7 whole entry): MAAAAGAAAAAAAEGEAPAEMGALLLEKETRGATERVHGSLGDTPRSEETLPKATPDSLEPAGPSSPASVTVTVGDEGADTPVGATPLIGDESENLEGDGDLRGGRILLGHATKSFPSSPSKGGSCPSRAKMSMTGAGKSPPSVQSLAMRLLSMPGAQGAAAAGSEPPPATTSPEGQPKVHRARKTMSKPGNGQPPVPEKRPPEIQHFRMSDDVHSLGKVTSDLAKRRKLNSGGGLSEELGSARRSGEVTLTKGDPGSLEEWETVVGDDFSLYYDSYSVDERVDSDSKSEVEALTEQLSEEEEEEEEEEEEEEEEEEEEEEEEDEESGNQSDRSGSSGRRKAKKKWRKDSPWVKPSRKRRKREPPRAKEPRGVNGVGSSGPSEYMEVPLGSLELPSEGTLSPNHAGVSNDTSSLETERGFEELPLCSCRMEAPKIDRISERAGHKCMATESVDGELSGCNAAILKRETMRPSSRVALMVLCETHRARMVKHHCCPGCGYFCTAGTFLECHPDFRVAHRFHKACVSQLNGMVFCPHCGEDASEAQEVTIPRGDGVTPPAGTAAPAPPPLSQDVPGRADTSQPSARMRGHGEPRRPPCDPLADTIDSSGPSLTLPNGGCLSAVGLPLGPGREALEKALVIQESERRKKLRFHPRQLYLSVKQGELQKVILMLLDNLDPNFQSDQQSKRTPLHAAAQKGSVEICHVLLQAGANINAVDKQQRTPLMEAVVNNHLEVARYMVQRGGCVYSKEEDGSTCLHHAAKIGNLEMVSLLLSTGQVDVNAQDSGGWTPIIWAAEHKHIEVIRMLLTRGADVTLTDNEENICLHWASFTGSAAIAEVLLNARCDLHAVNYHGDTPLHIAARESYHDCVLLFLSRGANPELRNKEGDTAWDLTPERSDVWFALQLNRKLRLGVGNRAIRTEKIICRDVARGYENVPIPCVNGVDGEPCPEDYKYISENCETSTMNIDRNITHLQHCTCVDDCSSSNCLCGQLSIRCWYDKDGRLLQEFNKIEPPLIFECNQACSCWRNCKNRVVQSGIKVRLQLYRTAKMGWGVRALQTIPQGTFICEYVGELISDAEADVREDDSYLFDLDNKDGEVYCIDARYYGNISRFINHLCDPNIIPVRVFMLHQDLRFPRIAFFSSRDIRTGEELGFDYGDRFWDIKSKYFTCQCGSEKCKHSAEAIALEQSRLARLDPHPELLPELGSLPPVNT
smiles,measurement,setting,value
NC(=O)c1cccc(C#C[C@@H](CC[C@H](N)C(=O)O)C[C@H]2O[C@@H](n3cnc4c(N)ncnc43)[C@H](O)[C@@H]2O)c1,"inhibition at 0.5 h, 1 µM",[1],51%
same,"inhibition at 0.5 h, 1 µM",[2],0%
same,"inhibition at 0.25 h, 1 µM",[3],0%
same,"inhibition at 0.25 h, 1 µM",[4],6%
same,"inhibition at 0.75 h, 10 µM",[5],26%
same,"inhibition at 0.5 h, 10 µM",[6],76%
same,IC50,[7],3.4 µM
same,IC50,[8],> 10 µM
